Legend:
[1] = Oral administration of Compound KC-7 co-dosed with trypsin inhibitor Compound 109 to rats (oxycodone in plasma); assay type: in vivo, rat; details: PO co-dosing, indicated by suppressed Cmax and/or delayed Tmax
[2] = Pharmacokinetics following PO administration to dogs (oxycodone in plasma)
[3] = Spacer leaving group cyclization rate (disappearance of compound in phosphate buffer); details: for half-life (compound disappearance, cyclization): 2.18 mM initial, 50 mM pH 7.4 phosphate buffer, 20° C.
[4] = biological target: T1, trypsin from bovine pancreas (Bos taurus, UniProt P00760); assay: In vitro trypsin-mediated prodrug cleavage; assay type: biochemical
T1 construct: trypsin from bovine pancreas; purchased Sigma-Aldrich T8003; host or cells: bovine pancreas (tissue-derived)
T1 sequence (P00760 24-246): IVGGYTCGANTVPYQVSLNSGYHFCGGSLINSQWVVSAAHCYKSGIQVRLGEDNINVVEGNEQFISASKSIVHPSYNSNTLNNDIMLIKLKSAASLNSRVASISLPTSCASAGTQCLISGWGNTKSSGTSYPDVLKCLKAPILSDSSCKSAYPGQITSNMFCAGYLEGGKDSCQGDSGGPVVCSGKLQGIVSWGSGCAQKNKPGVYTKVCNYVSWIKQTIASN
Procedure: (§1) The reactions were conducted at 37° C. for 24 h.
(§2) Table 3 indicates the results of exposure of Compound KC-7 to trypsin. […] Table 3 also indicates the cyclization rates of the cyclizable spacer leaving group of Compound KC-23. The results are expressed as half-life of compound disappearance. Since Compound KC-23 is a diastereomer, two peaks (A and B) were analyzed; the peak area of peak B was greater than that of peak A.

trypsin = biological target: T2, trypsin (Bos taurus, UniProt P00760); assay: In vitro trypsin-mediated prodrug cleavage; assay type: biochemical, bovine; details: bovine, trypsin from bovine pancreas; 0.761 mM prodrug, Tris pH 8, 37° C.; adjusted to 4815 BAEE U/mL trypsin
T2 construct: trypsin from bovine pancreas; purchased Sigma-Aldrich T8003; host or cells: bovine pancreas (tissue-derived)
T2 sequence (P00760 24-246): T1 sequence (P00760 24-246)
Procedure: as §1, §2

N=C(N)c1ccc2cc(OC(=O)c3ccc(N=C(N)N)cc3)ccc2c1 [Compound 109, 6-carbamimidoylnaphthalen-2-yl 4-(diaminomethyleneamino) benzoate]
effect of trypsin inhibitor on oxycodone release from Compound KC-7 [1]: attenuate Compound KC-7's ability to release oxycodone in rats in a dose-dependent manner

COc1ccc2c3c1O[C@H]1C(OC(=O)N(C)[C@@H](CNC(=O)[C@H](CCCNC(=N)N)NC(=O)CNC(C)=O)C(=O)N(C)CC(=O)O)=CC[C@@]4(O)[C@@H](C2)N(C)CC[C@]314 [Compound KC-7, N-1-[(S)-2-(oxycodone-6-enol-carbonyl-methyl-amino)-2-carbonyl-sarcosine-ethylamine]-arginine-glycine-acetate]
plasma PK profile of oxycodone release compared to OxyContin tablets and oxycodone ([2]; dogs, PO): resembles that of OxyContin® tablets more than that of oxycodone
release of oxycodone into dog plasma compared to Compound KC-3 ([2]; dogs, PO): significantly enhanced release of oxycodone into dog plasma (higher Cmax and AUC) as well as a more rapid Tmax
cyclization of the spacer leaving group ([3]; shown by the cyclization rate of Compound KC-23): can cyclize
OC formation rate ([4]; 0.761 mM prodrug, Tris pH 8, 37° C.): 0.339 ± 0.032 μmol/h/BAEE U
cleavage by trypsin ([4]; in vitro): can be cleaved by trypsin
half-life at 0.761 mM (trypsin): 0.196 ± 0.00031 h

N-1-[2-(oxycodone-6-enol-carbonyl-methyl-amino)-ethylamine]-arginine-malonic acid [Compound KC-3]
AUC ± sd ([2]; oxycodone in dog plasma, AUC 0 to 24 h, PO […] (KC-7 4.88, KC-3 4.15, oxycodone 2 mg/kg), OxyContin one 20 mg tablet): 65.6 ± 22 ng·h/mL
OC Cmax ± sd ([2]; oxycodone in dog plasma, PO […] (KC-7 4.88, KC-3 4.15, oxycodone 2 mg/kg), OxyContin one 20 mg tablet): 10.2 ± 3.3 ng/mL

[(S)-1-(oxycodone-6-enol-carbonyl-methyl-amino)-1-carbonyl-sarcosine]ethylamine [KC-23, peak A]
half-life (compound disappearance, cyclization) [3]: 7.22 ± 0.03 h

[(S)-1-(oxycodone-6-enol-carbonyl-methyl-amino)-1-carbonyl-sarcosine]ethylamine [KC-23, peak B]
half-life (compound disappearance, cyclization) [3]: 5.80 ± 0.08 h
